Reference: ChEMBL document CHEMBL6114993, “Thienopyrimidine: A promising scaffold in the development of kinase inhibitors with anticancer activities” (Bioorg Med Chem, 2025)

Key:
MCF7 = assay: Antiproliferative activity against human MCF7 cells assessed as reduction in cell viability incubated for 48 hrs by MTT assay; type: functional, cell-based; settings: MCF7, 48 h
[1] = biological target: T1, Fas-activated serine/threonine kinase (Homo sapiens, UniProt Q14296); assay: Inhibition of […] human FASTK (355 to 444 residues) extracted from Escherichia coli BL21 (DE3) by Malachite Green dye based assay
T1 sequence (Q14296 whole entry): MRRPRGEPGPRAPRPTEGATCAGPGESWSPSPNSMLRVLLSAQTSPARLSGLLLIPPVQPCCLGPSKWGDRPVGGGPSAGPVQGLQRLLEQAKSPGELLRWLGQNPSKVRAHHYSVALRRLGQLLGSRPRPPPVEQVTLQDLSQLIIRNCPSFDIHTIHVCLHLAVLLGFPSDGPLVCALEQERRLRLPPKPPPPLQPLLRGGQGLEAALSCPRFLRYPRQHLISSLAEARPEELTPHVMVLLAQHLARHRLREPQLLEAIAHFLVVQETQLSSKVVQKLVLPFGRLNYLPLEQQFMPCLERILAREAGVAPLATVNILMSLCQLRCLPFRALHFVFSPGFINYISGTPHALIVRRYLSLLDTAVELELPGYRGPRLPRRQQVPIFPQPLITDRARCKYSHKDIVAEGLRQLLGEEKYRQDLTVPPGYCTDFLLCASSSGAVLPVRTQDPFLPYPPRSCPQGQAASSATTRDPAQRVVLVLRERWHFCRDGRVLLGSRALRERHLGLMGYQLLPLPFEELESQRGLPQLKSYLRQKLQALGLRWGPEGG

[2] = biological target: Receptor tyrosine-protein kinase erbB-2 (Homo sapiens) (UniProt P04626); assay: Inhibition of human recombinant HER-2 at 10 uM relative to control
Receptor tyrosine-protein kinase erbB-2 (Homo sapiens), sequence (P04626 whole entry): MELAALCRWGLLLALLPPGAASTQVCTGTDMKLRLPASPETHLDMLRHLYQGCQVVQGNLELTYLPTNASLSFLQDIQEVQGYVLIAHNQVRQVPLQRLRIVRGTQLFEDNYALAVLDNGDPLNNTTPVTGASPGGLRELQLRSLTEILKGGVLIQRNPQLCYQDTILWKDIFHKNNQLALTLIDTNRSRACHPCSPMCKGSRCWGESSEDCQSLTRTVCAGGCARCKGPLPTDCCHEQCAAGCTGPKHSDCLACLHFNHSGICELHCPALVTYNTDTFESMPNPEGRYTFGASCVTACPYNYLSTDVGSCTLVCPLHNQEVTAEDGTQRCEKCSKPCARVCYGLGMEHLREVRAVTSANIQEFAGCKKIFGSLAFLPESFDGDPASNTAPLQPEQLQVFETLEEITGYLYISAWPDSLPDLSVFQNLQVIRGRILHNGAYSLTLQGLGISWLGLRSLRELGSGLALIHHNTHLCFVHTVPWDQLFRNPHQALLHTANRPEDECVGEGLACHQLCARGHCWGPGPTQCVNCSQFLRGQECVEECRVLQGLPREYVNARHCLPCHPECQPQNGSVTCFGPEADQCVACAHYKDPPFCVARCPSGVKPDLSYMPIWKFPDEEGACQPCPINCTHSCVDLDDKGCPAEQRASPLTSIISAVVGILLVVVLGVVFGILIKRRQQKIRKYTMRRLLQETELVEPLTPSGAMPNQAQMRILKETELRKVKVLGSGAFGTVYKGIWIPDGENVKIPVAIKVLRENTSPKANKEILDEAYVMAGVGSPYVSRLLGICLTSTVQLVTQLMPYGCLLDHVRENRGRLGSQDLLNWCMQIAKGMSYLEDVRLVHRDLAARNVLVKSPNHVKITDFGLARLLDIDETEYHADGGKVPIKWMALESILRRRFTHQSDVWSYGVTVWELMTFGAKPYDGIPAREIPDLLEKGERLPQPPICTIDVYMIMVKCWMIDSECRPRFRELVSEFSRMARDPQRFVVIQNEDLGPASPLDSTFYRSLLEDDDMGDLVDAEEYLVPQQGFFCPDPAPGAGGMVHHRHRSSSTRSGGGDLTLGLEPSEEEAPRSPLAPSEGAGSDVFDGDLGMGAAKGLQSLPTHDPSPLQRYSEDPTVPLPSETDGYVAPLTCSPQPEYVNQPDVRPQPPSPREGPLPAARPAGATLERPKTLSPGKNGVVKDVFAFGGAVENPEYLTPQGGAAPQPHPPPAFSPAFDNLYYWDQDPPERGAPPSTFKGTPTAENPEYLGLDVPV

[3] = biological target: Epidermal growth factor receptor (Homo sapiens) (UniProt P00533); assay: Inhibition of human recombinant EGFR at 10 uM relative to control
Epidermal growth factor receptor (Homo sapiens), sequence (P00533 whole entry): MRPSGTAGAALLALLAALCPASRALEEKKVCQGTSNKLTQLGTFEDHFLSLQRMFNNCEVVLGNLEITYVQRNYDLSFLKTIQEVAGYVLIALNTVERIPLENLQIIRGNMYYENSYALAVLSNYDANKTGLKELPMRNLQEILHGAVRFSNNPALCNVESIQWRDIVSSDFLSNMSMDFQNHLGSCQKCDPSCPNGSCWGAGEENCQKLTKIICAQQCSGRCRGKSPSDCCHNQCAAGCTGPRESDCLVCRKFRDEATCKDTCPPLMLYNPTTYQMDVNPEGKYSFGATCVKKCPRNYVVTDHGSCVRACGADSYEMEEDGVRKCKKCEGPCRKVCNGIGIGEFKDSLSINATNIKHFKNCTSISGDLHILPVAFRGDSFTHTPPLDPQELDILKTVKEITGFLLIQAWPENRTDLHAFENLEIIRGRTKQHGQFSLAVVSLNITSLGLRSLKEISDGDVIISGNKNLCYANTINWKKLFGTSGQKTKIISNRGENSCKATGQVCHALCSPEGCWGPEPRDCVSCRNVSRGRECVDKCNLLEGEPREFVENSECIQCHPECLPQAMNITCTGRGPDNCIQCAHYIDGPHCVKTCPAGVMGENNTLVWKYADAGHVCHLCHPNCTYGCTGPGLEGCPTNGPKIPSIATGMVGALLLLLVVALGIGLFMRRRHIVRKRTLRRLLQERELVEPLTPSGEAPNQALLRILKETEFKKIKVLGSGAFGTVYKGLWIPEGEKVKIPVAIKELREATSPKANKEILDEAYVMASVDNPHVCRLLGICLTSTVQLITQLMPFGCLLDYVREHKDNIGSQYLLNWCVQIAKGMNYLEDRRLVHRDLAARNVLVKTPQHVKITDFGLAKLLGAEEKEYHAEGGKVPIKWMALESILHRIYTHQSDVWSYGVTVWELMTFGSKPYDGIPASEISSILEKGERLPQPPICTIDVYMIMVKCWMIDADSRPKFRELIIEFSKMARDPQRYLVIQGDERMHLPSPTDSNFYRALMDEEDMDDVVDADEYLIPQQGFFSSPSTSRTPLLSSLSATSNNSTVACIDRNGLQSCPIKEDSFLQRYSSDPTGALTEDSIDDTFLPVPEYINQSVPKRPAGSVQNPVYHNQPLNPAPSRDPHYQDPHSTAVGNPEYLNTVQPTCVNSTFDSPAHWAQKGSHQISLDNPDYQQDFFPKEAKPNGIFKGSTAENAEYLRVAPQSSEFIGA

HUVEC = assay: Antiproliferative activity against HUVEC cells assessed as reduction in cell viability at 10 uM by alamar blue reagent based assay relative to control; type: functional; settings: Homo sapiens
Ehrlich = assay: Antitumor activity against mouse Ehrlich carcinoma cell implanted in Swiss albino mouse model assessed as tumour growth inhibition at 10 mg/kg, po administered consecutively for 8 days relative to control; type: functional; settings: 192 h, time 8 day, read-out: TGI
[4] = biological target: Vascular endothelial growth factor receptor 2 (Homo sapiens) (UniProt P35968); assay: Inhibition of N-terminal GST-tagged human recombinant VEGFR2 extracted from Sf9 cells at 10 uM relative to control; type: cell-free
Vascular endothelial growth factor receptor 2 (Homo sapiens), sequence (P35968 whole entry): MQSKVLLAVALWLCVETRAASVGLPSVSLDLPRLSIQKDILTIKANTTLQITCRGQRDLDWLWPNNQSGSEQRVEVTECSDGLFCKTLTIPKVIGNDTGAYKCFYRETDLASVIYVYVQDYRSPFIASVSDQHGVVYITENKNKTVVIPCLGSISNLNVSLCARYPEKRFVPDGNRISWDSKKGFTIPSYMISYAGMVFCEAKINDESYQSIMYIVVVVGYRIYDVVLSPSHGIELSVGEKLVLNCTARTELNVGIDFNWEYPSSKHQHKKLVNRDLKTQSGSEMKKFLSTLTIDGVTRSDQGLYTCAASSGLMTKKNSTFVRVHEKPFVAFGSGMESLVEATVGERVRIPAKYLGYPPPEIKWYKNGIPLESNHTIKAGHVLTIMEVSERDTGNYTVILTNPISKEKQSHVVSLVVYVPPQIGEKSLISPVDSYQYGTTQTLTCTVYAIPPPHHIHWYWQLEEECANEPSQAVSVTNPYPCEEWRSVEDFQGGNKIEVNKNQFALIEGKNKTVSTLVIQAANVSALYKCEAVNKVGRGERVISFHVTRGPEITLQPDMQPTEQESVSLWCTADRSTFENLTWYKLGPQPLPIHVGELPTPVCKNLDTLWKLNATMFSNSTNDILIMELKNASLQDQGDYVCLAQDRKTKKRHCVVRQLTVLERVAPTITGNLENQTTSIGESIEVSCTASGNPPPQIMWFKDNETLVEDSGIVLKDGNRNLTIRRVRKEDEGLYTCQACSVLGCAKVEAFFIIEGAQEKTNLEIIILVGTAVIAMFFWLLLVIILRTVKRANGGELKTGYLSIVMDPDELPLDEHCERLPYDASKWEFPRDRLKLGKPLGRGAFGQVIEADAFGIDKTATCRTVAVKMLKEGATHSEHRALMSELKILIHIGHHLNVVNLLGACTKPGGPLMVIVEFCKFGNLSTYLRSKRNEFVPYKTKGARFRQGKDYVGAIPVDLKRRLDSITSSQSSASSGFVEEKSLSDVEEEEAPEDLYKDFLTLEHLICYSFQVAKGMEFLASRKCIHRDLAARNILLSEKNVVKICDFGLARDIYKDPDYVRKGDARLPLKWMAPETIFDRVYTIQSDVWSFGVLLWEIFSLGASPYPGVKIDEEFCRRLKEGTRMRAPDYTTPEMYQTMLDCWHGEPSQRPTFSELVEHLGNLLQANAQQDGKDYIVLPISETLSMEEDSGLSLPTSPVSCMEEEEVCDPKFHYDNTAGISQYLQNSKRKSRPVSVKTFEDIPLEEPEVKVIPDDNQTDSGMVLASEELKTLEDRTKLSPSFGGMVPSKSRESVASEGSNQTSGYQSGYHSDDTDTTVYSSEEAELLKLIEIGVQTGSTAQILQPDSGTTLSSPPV

MDA-MB-468 = assay: Antiproliferative activity against human MDA-MB-468 cells overexpressing EGFR/HER-2 assessed as inhibition of cell growth at 10 uM relative to control; type: functional
SK-OV-3 = assay: Antiproliferative activity against human SK-OV-3 cells overexpressing EGFR/HER-2 assessed as inhibition of cell growth at 10 uM relative to control; type: functional
NCI-H522 = assay: Antiproliferative activity against human NCI-H522 cells overexpressing EGFR/HER-2 assessed as inhibition of cell growth at 10 uM relative to control; type: functional

Compound	inhibition [2] [%]	inhibition [3] [%]	inhibition at 10 µM (HUVEC) [%]	also measured
COc1ccc(/C=C/C(=O)c2ccc(Nc3ncnc4sc5c(c34)CCCC5)cc2)cc1OC	–	–	–	IC50 (MCF7): 8.2 µM; IC50 [1]: 0.15 µM
O=C(/C=C/c1ccc(Cl)cc1)c1ccc(Nc2ncnc3sc4c(c23)CCCC4)cc1	–	–	–	IC50 (MCF7): 6.52 µM; IC50 [1]: 0.17 µM
O=C(/C=C/c1ccccc1)c1ccc(Nc2ncnc3sc4c(c23)CCCC4)cc1	–	–	–	IC50 (MCF7): 20.2 µM; IC50 [1]: 0.32 µM
Cc1ccc(NC(=O)Nc2ccc(Oc3ncnc4sc5c(c34)CCCC5)cc2)cc1Cl	–	–	46	inhibition in vivo at 10 mg/kg (Ehrlich): 82.7%
O=C(Nc1ccc(Cl)cc1)Nc1ccc(Oc2ncnc3sc4c(c23)CCCC4)cc1	–	–	–	inhibition [4]: 46%
O=C(Nc1ccccc1)Nc1ccc(Oc2ncnc3sc4c(c23)CCCC4)cc1	–	–	64.3	–
Cc1cccc(NC(=O)Nc2ccc(Oc3ncnc4sc5c(c34)CCCC5)cc2)c1	–	–	82	inhibition in vivo at 10 mg/kg (Ehrlich): 86.4%
COc1cccc(NC(=O)Nc2ccc(Oc3ncnc4sc5c(c34)CCCC5)cc2)c1	–	–	79.2	–

Further lines, with some results ahead:

inhibition [2] [%]	inhibition [3] [%]	Compound	inhibition at 10 µM (HUVEC) [%]	also measured
84	93	Clc1cc(Nc2ncnc3sc4c(c23)CCCC4)ccc1OCc1ccccc1	–	–
84	93	Fc1ccc(COc2ccc(Nc3ncnc4sc5c(c34)CCCC5)cc2Cl)cc1	–	–
84	93	c1ccc(COc2ccc(Nc3ncnc4sc5c(c34)CCCC5)cc2)cc1	–	–
84	93	Fc1cccc(COc2ccc(Nc3ncnc4sc5c(c34)CCCC5)cc2)c1	–	–
84	93	Fc1cccc(COc2ccc(Nc3ncnc4sc5c(c34)CCCC5)cc2Cl)c1	–	inhibition at 10 µM (MDA-MB-468): 68.2%; inhibition at 10 µM (SK-OV-3): 80.6%; inhibition at 10 µM (NCI-H522): 56%
